Measured values from PMC11253624, “Unsaturated fatty acid perturbation combats emerging triazole antifungal resistance in the human fungal pathogen Aspergillus fumigatus” (mBio, 2024).
In brackets after ≈: the same amount, converted by molar mass.

Key:
[1] = tested on: Aspergillus fumigatus; experiment: FIC checkerboard synergy assay, A. fumigatus; type: cell-based; conditions: for MIC: Aspergillus fumigatus
[2] = tested on: Cryptococcus neoformans; experiment: FIC checkerboard assay MBX-7591 and oleic acid, C. neoformans; type: cell-based
Procedure: Single-treatment controls were completed with 50 µL of media to substitute the volume of the other compound. […] Additional untreated and media-only controls were added to the plate as described above. Incubation of the plates and MIC assessments (individual and in combination) were performed as described above. FIC calculations were done according to the established formula: ∑FIC=MIC combination compound A/MIC individual compound A + MIC combination compound B/MIC individual compound B . Synergy was considered equal or lower than 0.5, and antagonism was considered to be higher than 2. FIC scores reported represent between three and five biological replicates. All antifungal susceptibility testing was done in 96-well plates using RPMI 1640 media buffered with 165 mM of MOPS and pH 7 using NaOH. CLSI-based microbroth dilution assays were done in accordance with M27 ([49]). […] Additionally, an untreated control (100 µL of a stock of 2 × 10^3 spores/mL and 100 µL of media) and a media-only control (200 µL media) were included in the plate. The plate was covered in a Breathe-Eazy membrane to allow for uniform oxygen diffusion throughout the plate and incubated for 24 hours at 35°C (Candida spp.) or 72 hours at 35°C ± 5% CO2 (Cryptococcus neoformans).

[3] = tested on: A. fumigatus CEA10; experiment: Fatty acid profile of 24-hour biofilms by GC-MS; type: cell-based, Aspergillus fumigatus; conditions: CEA10 24-hour biofilm; MBX-7591 0.58 µg/mL, voriconazole 0.0625 µg/mL
[4] = tested on: Aspergillus fumigatus; experiment: CLSI-based microbroth dilution MIC, A. fumigatus strains; conditions: Aspergillus fumigatus

OC(Cn1cncn1)(Cn1cncn1)c1ccc(F)cc1F [Fluconazole, fluconazole]
MIC ([1]; strain CEA10, FLC alone, read-out: MIC Azole (FLC)): > 256 µg/mL
MIC Azole in combination (FLC) ([1]; strain CEA10, FLC with 0.613 µg/mL MBX-7591): 16 µg/mL
fold increase in FLC potency ([1]; with 0.613 µg/mL MBX-7591): > 16 fold

CCCCCCCC/C=C\CCCCCCCC(=O)O [Oleic acid, oleic acid]
MIC ([1]; CEA10, oleic acid alone, read-out: MIC OA): > 500 µg/mL
MIC OA combination ([1]; CEA10, first line of Table S8 (MBX-7591 9.81 μg/ml)): 7.81 µg/mL
MIC OA combination ([1]; CEA10, second line of Table S8 (MBX-7591 19.63 μg/ml)): 15.63 µg/mL
MIC ([2]; Cryptococcus neoformans, H99, oleic acid alone, 5% CO2): > 500 µg/mL
MIC OA combination ([2]; H99, 5% CO2): 31.25 µg/mL

C[C@@H](c1ncncc1F)[C@](O)(Cn1cncn1)c1ccc(F)cc1F [Voriconazole]
MIC ([1]; read-out: MIC VCZ, strain 08-19-02-61 (TR34/L98H), alone): 2 µg/mL
MIC ([1]; read-out: MIC VCZ, strain 08-31-08-91 (TR34/L98H), alone): 4 µg/mL
MIC ([1]; read-out: MIC VCZ, strain F11628 (G138C), alone): > 8 µg/mL
MIC ([1]; read-out: MIC VCZ, strain F15390 (caf8) (M220T), alone): 1 µg/mL
MIC ([1]; strain CEA10, alone, read-out: MIC VCZ): 0.25 to 0.5 µg/mL
MIC VCZ in combination ([1]; strain 08-19-02-61, with MBX-7591): 0.5 µg/mL
MIC VCZ in combination ([1]; strain 08-31-08-91, with MBX-7591): 1 µg/mL
MIC VCZ in combination ([1]; strain CEA10, with MBX-7591, listed as VCZ): 0.0625 to 0.125 µg/mL
MIC VCZ ([1]; strain F11628 (G138C), alone, listed as VCZ): >8 µg/mL
MIC VCZ in combination ([1]; strain F11628, with MBX-7591): 0.5 to 1 µg/mL
MIC VCZ in combination ([1]; strain F15390 (caf8), with MBX-7591): 0.25 µg/mL
increase in VCZ potency in combination ([1]; with 0.613 µg/mL MBX-7591): four to eight times more potent
C14:0 relative percentage of fatty acids [3]: 0.11 ± 0.0046
C15:0 relative percentage of fatty acids [3]: 0.39 ± 0.11
C16:0 (palmitic acid) relative percentage of fatty acids [3]: 18.71 ± 0.25
C16:1n7 relative percentage of fatty acids [3]: 0.38 ± 0.041
C17a relative percentage of fatty acids [3]: 0.18 ± 0.15
C18:0 (stearic acid) relative percentage of fatty acids [3]: 3.06 ± 0.26
C18:1n7 relative percentage of fatty acids [3]: 0.00 ± 0
C18:1n9 (oleic acid) relative percentage of fatty acids [3]: 31.26 ± 1.67
C18:2n6 relative percentage of fatty acids [3]: 45.91 ± 1.99
MIC ([4]; ATCC46455, read-out: Voriconazole MIC): 0.25 to 0.5 µg/mL (≈ 0.716 to 1.43 µM)
MIC ([4]; read-out: Voriconazole MIC, strain 08-19-02-10 (TR34/L98H)): 2 µg/mL (≈ 5.73 µM)
MIC ([4]; read-out: Voriconazole MIC, strain 08-19-02-46 (TR34/L98H)): 2 µg/mL (≈ 5.73 µM)
MIC ([4]; read-out: Voriconazole MIC, strain 08-19-02-61 (TR34/L98H), Table S6): 1 µg/mL (≈ 2.86 µM)
MIC ([4]; read-out: Voriconazole MIC, strain 08-31-08-91 (TR34/L98H), Table S6): 4 µg/mL (≈ 11.5 µM)
MIC ([4]; read-out: Voriconazole MIC, strain 10-19-02-27 (TR34/L98H)): 4 µg/mL (≈ 11.5 µM)
MIC ([4]; read-out: Voriconazole MIC, strain F11628 (G138C), Table S6): > 8 µg/mL
MIC ([4]; read-out: Voriconazole MIC, strain F15390 (M220T), Table S6): 1 µg/mL (≈ 2.86 µM)
